Numbered stars: 1 amine (or outer) side, 2 acyl side, 3 side chain; on linkers, the order of the positions; unused ones are H or OH. Bridge positions count the residues as written; N and C are the ends. Square brackets hold non-standard residues; d marks the D form. Peptide text beside a SMILES is read from it. * marks the point of attachment. ξ: configuration not given here. X29 = O=C([C@H](Cc1ccc(-c2cc(F)cc(F)c2)cc1)N[*:1])[*:2]; Phe(4-COOH) = N[C@@H](Cc1ccc(C(=O)O)cc1)C(=O)O; Bip = N[C@@H](Cc1ccc(-c2ccccc2)cc1)C(=O)O; Lys(Me3) = C[N+](C)(C)CCCC[C@H](N)C(=O)O; Phe(3-Me) = Cc1cccc(C[C@H](N)C(=O)O)c1; Val(3-OH) = CC(C)(O)[C@H](N)C(=O)O; 3Pal = N[C@@H](Cc1cccnc1)C(=O)O; 4Pal = N[C@@H](Cc1ccncc1)C(=O)O; Cha = N[C@@H](CC1CCCCC1)C(=O)O; Ile(3ξ) = CCC(C)[C@H](N)C(=O)O; Thr(3ξ) = CC(O)[C@H](N)C(=O)O; Carboxymethyl = O=C(O)C*; NMeA = CN[C@@H](C)C(=O)O; Orn = NCCC[C@H](N)C(=O)O; Dab = NCC[C@H](N)C(=O)O; ξC = NC(CS)C(=O)O

A word on the IC50: it is the point on the concentration scale where inhibition reaches its midpoint.

The target in the assay is T1, PE-labeled human PD-L1-Ig binding to Jurkat cell line over-expressing human PD-1 (Jurkat-PD-1) (Homo sapiens, UniProt Q15116).
T1 construct: expressed in transfected cells; host or cells: Jurkat
T1 sequence (Q15116 25-288): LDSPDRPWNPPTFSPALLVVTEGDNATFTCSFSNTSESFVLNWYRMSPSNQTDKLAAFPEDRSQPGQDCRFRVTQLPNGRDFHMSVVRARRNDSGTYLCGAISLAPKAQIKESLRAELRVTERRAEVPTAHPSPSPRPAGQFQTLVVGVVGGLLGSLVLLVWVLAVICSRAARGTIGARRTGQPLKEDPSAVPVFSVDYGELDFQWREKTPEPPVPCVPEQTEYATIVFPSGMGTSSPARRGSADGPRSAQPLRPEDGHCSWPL
Nature of the assay: Jurkat-PD-1 Cell Binding High-Content Screening Assay (CBA): Method 1. The conditions noted are these: Jurkat-hPD-1 cells, PE-labeled PD-L1-Ig 20 nM final; read-out: Jurkat HPDL1 PD1 IC50 (uM) (Method 1).
On to `CCC(C)[C@@H]1NC(=O)[C@H](Cc2ccc(-c3ccccc3)cc2)NC(=O)[C@H](C(C)C)NC(=O)[C@H](Cc2c[nH]c3ccccc23)NC(=O)[C@H](CC(=O)O)NC(=O)[C@H](Cc2ccc(O)cc2)NC(=O)[C@H](Cc2ccncc2)NC(=O)CSCC(C(=O)N[C@@H](CCN)C(=O)O)NC(=O)[C@H](C(C)O)NC(=O)[C@H](C(C)C)NC(=O)[C@H](CC2CCCCC2)NC(=O)[C@H](CC(N)=O)NC(=O)[C@@H](CC(C)C)NC(=O)[C@H](C)N(C)C1=O` (stereo partly drawn) [Compound 2213] ({CH2CO}-[4Pal]YDWV[Bip][Ile(3ξ)][NMeA][dL]N[Cha]V[Thr(3ξ)][ξC][Dab]-OH; thioether N-14), for which the IC50 is 0.02 µM.

As for `CC(C)C[C@@H]1NC(=O)[C@H](Cc2c[nH]c3ccccc23)NC(=O)[C@H](CC(=O)O)NC(=O)[C@H](Cc2ccc(C(=O)O)cc2)NC(=O)[C@H](Cc2ccccc2)NC(=O)CSC[C@@H](C(=O)N[C@@H](C)C(N)=O)NC(=O)[C@H](CO)NC(=O)[C@H](C(C)C)NC(=O)[C@H](CC(C)C)NC(=O)[C@H](CC(N)=O)NC(=O)[C@@H](C)NC(=O)[C@H](C)N(C)C(=O)[C@H](C(C)C)NC(=O)[C@H](Cc2ccc(-c3ccccc3)cc2)NC1=O` [Compound 1731] ({CH2CO}-F[Phe(4-COOH)]DWL[Bip]V[NMeA][dA]NLVSCA-NH2; thioether N-14), the IC50 stood at 0.01 µM.

As for `CC(C)C[C@@H]1NC(=O)[C@H](Cc2c[nH]c3ccccc23)NC(=O)[C@H](CC(=O)O)NC(=O)[C@H](Cc2ccc(O)cc2)NC(=O)[C@H](Cc2ccccc2)NC(=O)CSC[C@@H](C(=O)N[C@@H](C)C(N)=O)NC(=O)[C@H](C(C)O)NC(=O)[C@H](CCN)NC(=O)[C@H](CC(C)C)NC(=O)[C@H](CC(N)=O)NC(=O)[C@@H](C)NC(=O)[C@H](C)N(C)C(=O)[C@H](C(C)C)NC(=O)[C@H](Cc2ccc(-c3ccccc3)cc2)NC1=O` (stereo partly drawn) [Compound 1534] ({CH2CO}-FYDWL[Bip]V[NMeA][dA]NL[Dab][Thr(3ξ)]CA-NH2; thioether N-14), the IC50 came out at 0.49 µM.

As to `CCC(C)[C@@H]1NC(=O)[C@H](Cc2ccc(-c3ccccc3)cc2)NC(=O)[C@H](C(C)C)NC(=O)[C@H](Cc2c[nH]c3ccccc23)NC(=O)[C@H](CC(=O)O)NC(=O)[C@H](Cc2ccc(O)cc2)NC(=O)[C@H](CCCC[N+](C)(C)C)NC(=O)CSCC(C(=O)NCC(=O)O)NC(=O)[C@H](C(C)O)NC(=O)[C@H](C(C)C)NC(=O)[C@H](CC2CCCCC2)NC(=O)[C@H](CCN)NC(=O)[C@@H](CC(C)C)NC(=O)[C@H](C)N(C)C1=O` (stereo partly drawn) [Compound 2217] ({CH2CO}-[Lys(Me3)]YDWV[Bip][Ile(3ξ)][NMeA][dL][Dab][Cha]V[Thr(3ξ)][ξC]G-OH; thioether N-14), the IC50 amounted to 0.01 µM.

In the case of `CC[C@H](C)[C@@H]1NC(=O)[C@H](CC(C)C)NC(=O)[C@H](CCCNC(=N)N)NC(=O)[C@@H](CC(C)C)NC(=O)[C@H](C)N(C)C(=O)[C@H](CCCNC(=N)N)NC(=O)[C@H](Cc2ccc(-c3ccccc3)cc2)NC(=O)[C@H](C(C)C)NC(=O)[C@H](Cc2c[nH]c3ccccc23)NC(=O)[C@H](CC(=O)O)NC(=O)[C@H](Cc2ccc(O)cc2)NC(=O)[C@H](Cc2ccccc2)NC(=O)CSC[C@@H](C(=O)N[C@@H](C)C(N)=O)NC(=O)[C@H]([C@@H](C)O)NC1=O` [Compound 1118] ({CH2CO}-FYDWV[Bip]R[NMeA][dL]RLITCA-NH2; thioether N-14), the IC50 was 0.16 µM.

In the case of `CC(C)C[C@@H]1NC(=O)[C@H](CCN)NC(=O)[C@@H](CC(C)C)NC(=O)[C@H](C)N(C)C(=O)[C@H](CCCNC(=N)N)NC(=O)[C@H](Cc2ccc(-c3ccccc3)cc2)NC(=O)[C@H](C(C)C)NC(=O)[C@H](Cc2c[nH]c3ccccc23)NC(=O)[C@H](CC(=O)O)NC(=O)[C@H](Cc2ccncc2)NC(=O)[C@H](Cc2cccnc2)NC(=O)CSC[C@@H](C(=O)N[C@@H](C)C(N)=O)NC(=O)[C@H]([C@@H](C)O)NC(=O)[C@H](C(C)C)NC1=O` [Compound 1147] ({CH2CO}-[3Pal][4Pal]DWV[Bip]R[NMeA][dL][Dab]LVTCA-NH2; thioether N-14), the IC50 stood at 0.02 µM.

Take `CCC(C)[C@@H]1NC(=O)[C@H](Cc2ccc(-c3ccccc3)cc2)NC(=O)[C@H](C(C)C)NC(=O)[C@H](Cc2cccc(C)c2)NC(=O)[C@H](CC(=O)O)NC(=O)[C@H](Cc2ccc(OCC(=O)O)cc2)NC(=O)[C@H](C(C)O)NC(=O)CSC[C@@H](C(=O)N[C@@H](CCN)C(N)=O)NC(=O)[C@H](C(C)O)NC(=O)[C@H](C(C)C)NC(=O)[C@H](CC2CCCCC2)NC(=O)[C@H](CCN)NC(=O)[C@@H](CC(C)C)NC(=O)[C@H](C)N(C)C1=O` (stereo partly drawn) [Compound 2116] ({CH2CO}-[Thr(3ξ)]Y(Carboxymethyl)D[Phe(3-Me)]V[Bip][Ile(3ξ)][NMeA][dL][Dab][Cha]V[Thr(3ξ)]C[Dab]-NH2; thioether N-14): the IC50 was determined as 0.01 µM.

As to `CC(C)C[C@@H]1NC(=O)[C@H](CCN)NC(=O)[C@@H](CC(C)C)NC(=O)[C@H](C)N(C)C(=O)[C@H](CCCNC(=N)N)NC(=O)[C@H](Cc2ccc(-c3cc(F)cc(F)c3)cc2)NC(=O)[C@H](C(C)C)NC(=O)[C@H](Cc2c[nH]c3ccccc23)NC(=O)[C@H](CC(=O)O)NC(=O)[C@H](Cc2ccc(O)cc2)NC(=O)[C@H](CC(N)=O)NC(=O)CSC[C@@H](C(=O)N[C@@H](C)C(N)=O)NC(=O)[C@H]([C@@H](C)O)NC(=O)[C@H](C(C)C)NC1=O` [Compound 1220] ({CH2CO}-NYDWV[X29]R[NMeA][dL][Dab]LVTCA-NH2; thioether N-14), the IC50 was found to be 0.26 µM.

`CC(C)C[C@@H]1NC(=O)[C@H](CCN)NC(=O)[C@@H](CC(C)C)NC(=O)[C@H](C)N(C)C(=O)[C@H](CCCN)NC(=O)[C@H](Cc2ccc(-c3ccccc3)cc2)NC(=O)[C@H](C(C)C)NC(=O)[C@H](Cc2c[nH]c3ccccc23)NC(=O)[C@H](CC(=O)O)NC(=O)[C@H](Cc2ccc(C(=O)O)cc2)NC(=O)[C@H](CC(N)=O)NC(=O)CSC[C@@H](C(=O)N[C@@H](C)C(N)=O)NC(=O)[C@H]([C@@H](C)O)NC(=O)[C@H](C(C)C)NC1=O` [Compound 1386] ({CH2CO}-N[Phe(4-COOH)]DWV[Bip][Orn][NMeA][dL][Dab]LVTCA-NH2; thioether N-14): the IC50 came to 0.05 µM.

For `CC(C)C[C@@H]1NC(=O)[C@H](Cc2c[nH]c3ccccc23)NC(=O)[C@H](CC(=O)O)NC(=O)[C@H](Cc2ccc(O)cc2)NC(=O)[C@H](Cc2ccccc2)NC(=O)CSC[C@@H](C(=O)NCC(N)=O)NC(=O)[C@H](CO)NC(=O)[C@H](C(C)C)NC(=O)[C@H](CC(C)C)NC(=O)[C@H](CC(N)=O)NC(=O)CNC(=O)[C@H](C)N(C)C(=O)[C@H](C(C)C)NC(=O)[C@H](Cc2ccc(-c3ccccc3)cc2)NC1=O` [Compound 1757] ({CH2CO}-FYDWL[Bip]V[NMeA]GNLVSCG-NH2; thioether N-14), the IC50 was found to be 0.03 µM.

As for `CC(C)C[C@@H]1NC(=O)[C@H](CCCN)NC(=O)[C@@H](CC(C)C)NC(=O)[C@H](C)N(C)C(=O)[C@H](CCCNC(=N)N)NC(=O)[C@H](Cc2ccc(-c3ccccc3)cc2)NC(=O)[C@H](C(C)C)NC(=O)[C@H](Cc2c[nH]c3ccccc23)NC(=O)[C@H](CC(=O)O)NC(=O)[C@H](Cc2ccc(O)cc2)NC(=O)[C@H](CC(N)=O)NC(=O)CSC[C@@H](C(=O)N[C@@H](C)C(N)=O)NC(=O)[C@H]([C@@H](C)O)NC(=O)[C@H](C(C)C)NC1=O` [Compound 1128] ({CH2CO}-NYDWV[Bip]R[NMeA][dL][Orn]LVTCA-NH2; thioether N-14), the IC50 worked out at 0.08 µM.

`CC(C)C[C@H]1NC(=O)[C@H](C)N(C)C(=O)[C@H](C(C)C)NC(=O)[C@H](Cc2ccc(-c3ccccc3)cc2)NC(=O)[C@H](C(C)C)NC(=O)[C@H](Cc2c[nH]c3ccccc23)NC(=O)[C@H](CC(=O)O)NC(=O)[C@H](Cc2ccncc2)NC(=O)[C@H](Cc2ccc(OCC(=O)O)cc2)NC(=O)CSC[C@@H](C(N)=O)NC(=O)[C@H](CCCCN)NC(=O)[C@H](C(C)C)NC(=O)[C@H](CC2CCCCC2)NC(=O)[C@H](CC(N)=O)NC1=O` [Compound 2246] ({CH2CO}-Y(Carboxymethyl)[4Pal]DWV[Bip]V[NMeA][dL]N[Cha]VKC-NH2; thioether N-14): the IC50 came to 0.03 µM.

Consider `Cc1cccc(C[C@@H]2NC(=O)[C@H](CC(=O)O)NC(=O)[C@H](Cc3ccc(C(=O)O)cc3)NC(=O)[C@H](Cc3ccncc3)NC(=O)CSC[C@@H](C(=O)N[C@@H](CO)C(N)=O)NC(=O)[C@H](CCC(=O)O)NC(=O)[C@H](C(C)(C)O)NC(=O)[C@H](CC3CCCCC3)NC(=O)[C@H](CCN)NC(=O)[C@@H](CC(C)C)NC(=O)[C@H](C)N(C)C(=O)[C@H](Cc3ccc(OCC(=O)O)cc3)NC(=O)[C@H](Cc3ccc(-c4ccccc4)cc3)NC(=O)[C@H](Cc3ccc(C(=O)O)cc3)NC2=O)c1` [Compound 2195] ({CH2CO}-[4Pal][Phe(4-COOH)]D[Phe(3-Me)][Phe(4-COOH)][Bip]Y(Carboxymethyl)[NMeA][dL][Dab][Cha][Val(3-OH)]ECS-NH2; thioether N-14), for which the IC50 amounted to 0.08 µM.

On to `CC(C)C[C@@H]1NC(=O)[C@H](CCN)NC(=O)[C@@H](CC(C)C)NC(=O)[C@H](C)N(C)C(=O)[C@H](CCCNC(=N)N)NC(=O)[C@H](Cc2ccc(-c3ccccc3)cc2)NC(=O)[C@H](C(C)C)NC(=O)[C@H](Cc2c[nH]c3ccccc23)NC(=O)[C@H](CC(=O)O)NC(=O)[C@H](Cc2ccc(O)cc2)NC(=O)[C@H](Cc2cccnc2)NC(=O)CSC[C@@H](C(=O)N[C@@H](C)C(N)=O)NC(=O)[C@H]([C@@H](C)O)NC(=O)[C@H](C(C)C)NC1=O` [Compound 1053] ({CH2CO}-[3Pal]YDWV[Bip]R[NMeA][dL][Dab]LVTCA-NH2; thioether N-14), for which the IC50 is 0.12 µM.

On to `CC(C)C[C@@H]1NC(=O)[C@H](CCCCN)NC(=O)[C@@H](CC(C)C)NC(=O)[C@H](C)N(C)C(=O)[C@H](Cc2cnc[nH]2)NC(=O)[C@H](Cc2ccc(-c3ccccc3)cc2)NC(=O)[C@H](C(C)C)NC(=O)[C@H](Cc2c[nH]c3ccccc23)NC(=O)[C@H](CC(=O)O)NC(=O)[C@H](Cc2ccc(O)cc2)NC(=O)[C@H](CC(N)=O)NC(=O)CSC[C@@H](C(=O)N[C@@H](C)C(N)=O)NC(=O)[C@H](CO)NC(=O)[C@H](C(C)C)NC1=O` [Compound 1482] ({CH2CO}-NYDWV[Bip]H[NMeA][dL]KLVSCA-NH2; thioether N-14), for which the IC50 came out at 0.11 µM.

The values are drawn from patent publication US20240409585A1, “MACROCYCLIC IMMUNOMODULATORS” (priority 2021, published 2024).
